Reference: patent US12685726B2, “Sulfoximines as inhibitors of NaV1.8” (Gruenenthal GmbH, priority 2022, dated 2026)

Molecular target: T1, human NaV 1.8 (Homo sapiens, UniProt Q9Y5Y9)
T1 construct: expressed in transfected cells; host or cells: HEK (recombinant cell line)
Test: Automated whole-cell patch clamp (Qube384) voltage-clamp recordings of sodium currents in HEK-NaV1.8 cell line
Format: cell-based
Details: read-out: Potency category (human NaV 1.8 IC50)
Method: Electrophysiology: Voltage-Clamp Recordings
The following NaV1.8 recombinant cell line was used for recordings: HEK-NaV1.8 (NM_006514.1) with b3 (NM_018400.3).
Sodium currents were measured using the patch clamp technique in the whole-cell configuration using the Qube384 (Sophion A/S, Copenhagen, Denmark) automated voltage clamp platform. “Multi hole” plates were used for the cell line expressing NaV1.8 while “single hole” plates were used for the recombinant cell lines expressing the other subtypes. Appropriate filters (for minimum seal resistance and minimum current size) and series resistance compensation (for high quality sodium channel recordings) were applied. Data was collected at ambient room temperature or 19° C.
The recording extracellular solution contained (in mM): NaCl 145 mM, KCl 4 mM, CaCl2 2 mM, MgCl2 1 mM, HEPES 10 mM, Glucose 10 mM, pH 7.4 (NaOH). The intracellular recording solution contained (in mM): CsF 120 mM, CsCl 20 mM, NaCl 10 mM, EGTA 10 mM, HEPES 10 mM, pH 7.2 (CsOH). Currents were recorded at 25 kHz sampling frequency and filtered at 5 kHz. Series resistance compensation was applied at 65%.
Vehicle (VEH) is the control condition where cells are exposed to 0.3% DMSO without compound. All runs include VEH controls being exposed to the same voltage protocols to assess non-compound related phenomena such as run down and then used to isolate compound dependent effects on currents.
To check for state-dependent inhibition, the following voltage-sequence was applied every 20 seconds:
From a resting membrane potential of −120 mV, the first test pulse (P1; 20 ms to −10 mV) was applied to check for channels in the Resting State followed by a brief recovery (100 ms to −120 mV), then holding the membrane voltage to V1/2 (4 seconds at voltage to obtain half the channel at Rest and half Inactivated) with a subsequent second test pulse (P2; 20 ms to −10 mV) to check for channels in the Inactivated State, followed by another brief recovery (20 ms to −120 mV) and a final third test pulse (P3; 20 ms to −10 mV) to check for recovered channels.
To check for frequency-dependent inhibition, a 10 Hz protocol and a 20 Hz protocol were applied; namely,
From a resting membrane potential of −120 mV, 40-pulses (10 ms to −10 mV) was applied at 10 Hz (at 100 ms between pulses) and then at 20 Hz (at 50 ms between pulses).
Each parameter was recorded (P1, P2, P3, P40 from 10 Hz and P40 from 20 Hz) during a control period (lasting 5 minutes) when establishing the baseline and during compound period (lasting ~12 minutes) when test compound (or vehicle) was applied. For each parameter, the value at the end of the compound period was normalized to the vehicle baseline; as follows
To adjust for any variance in the Na^+ current signal during the compound period (owing to cumulative inactivation independent of compound or shifts in biophysics over time), a dedicated segment of the recording wells in each 384 plate were dedicated to having only vehicle exposure. These vehicle-only recordings were used to correct for any apparent “run-up” or “run-down” in the experiment.
The adjusted inhibition was calculated as follows: […]
Percent inhibition was determined and IC50 values were calculated using a 4 parameter logistic model within XLFit Software (IDBS, Boston MA): F
[formula] where A and B are the maximal and minimum inhibition respectively, C is the IC50 concentration and D is the (Hill) slope.

T1 sequence (Q9Y5Y9 whole entry): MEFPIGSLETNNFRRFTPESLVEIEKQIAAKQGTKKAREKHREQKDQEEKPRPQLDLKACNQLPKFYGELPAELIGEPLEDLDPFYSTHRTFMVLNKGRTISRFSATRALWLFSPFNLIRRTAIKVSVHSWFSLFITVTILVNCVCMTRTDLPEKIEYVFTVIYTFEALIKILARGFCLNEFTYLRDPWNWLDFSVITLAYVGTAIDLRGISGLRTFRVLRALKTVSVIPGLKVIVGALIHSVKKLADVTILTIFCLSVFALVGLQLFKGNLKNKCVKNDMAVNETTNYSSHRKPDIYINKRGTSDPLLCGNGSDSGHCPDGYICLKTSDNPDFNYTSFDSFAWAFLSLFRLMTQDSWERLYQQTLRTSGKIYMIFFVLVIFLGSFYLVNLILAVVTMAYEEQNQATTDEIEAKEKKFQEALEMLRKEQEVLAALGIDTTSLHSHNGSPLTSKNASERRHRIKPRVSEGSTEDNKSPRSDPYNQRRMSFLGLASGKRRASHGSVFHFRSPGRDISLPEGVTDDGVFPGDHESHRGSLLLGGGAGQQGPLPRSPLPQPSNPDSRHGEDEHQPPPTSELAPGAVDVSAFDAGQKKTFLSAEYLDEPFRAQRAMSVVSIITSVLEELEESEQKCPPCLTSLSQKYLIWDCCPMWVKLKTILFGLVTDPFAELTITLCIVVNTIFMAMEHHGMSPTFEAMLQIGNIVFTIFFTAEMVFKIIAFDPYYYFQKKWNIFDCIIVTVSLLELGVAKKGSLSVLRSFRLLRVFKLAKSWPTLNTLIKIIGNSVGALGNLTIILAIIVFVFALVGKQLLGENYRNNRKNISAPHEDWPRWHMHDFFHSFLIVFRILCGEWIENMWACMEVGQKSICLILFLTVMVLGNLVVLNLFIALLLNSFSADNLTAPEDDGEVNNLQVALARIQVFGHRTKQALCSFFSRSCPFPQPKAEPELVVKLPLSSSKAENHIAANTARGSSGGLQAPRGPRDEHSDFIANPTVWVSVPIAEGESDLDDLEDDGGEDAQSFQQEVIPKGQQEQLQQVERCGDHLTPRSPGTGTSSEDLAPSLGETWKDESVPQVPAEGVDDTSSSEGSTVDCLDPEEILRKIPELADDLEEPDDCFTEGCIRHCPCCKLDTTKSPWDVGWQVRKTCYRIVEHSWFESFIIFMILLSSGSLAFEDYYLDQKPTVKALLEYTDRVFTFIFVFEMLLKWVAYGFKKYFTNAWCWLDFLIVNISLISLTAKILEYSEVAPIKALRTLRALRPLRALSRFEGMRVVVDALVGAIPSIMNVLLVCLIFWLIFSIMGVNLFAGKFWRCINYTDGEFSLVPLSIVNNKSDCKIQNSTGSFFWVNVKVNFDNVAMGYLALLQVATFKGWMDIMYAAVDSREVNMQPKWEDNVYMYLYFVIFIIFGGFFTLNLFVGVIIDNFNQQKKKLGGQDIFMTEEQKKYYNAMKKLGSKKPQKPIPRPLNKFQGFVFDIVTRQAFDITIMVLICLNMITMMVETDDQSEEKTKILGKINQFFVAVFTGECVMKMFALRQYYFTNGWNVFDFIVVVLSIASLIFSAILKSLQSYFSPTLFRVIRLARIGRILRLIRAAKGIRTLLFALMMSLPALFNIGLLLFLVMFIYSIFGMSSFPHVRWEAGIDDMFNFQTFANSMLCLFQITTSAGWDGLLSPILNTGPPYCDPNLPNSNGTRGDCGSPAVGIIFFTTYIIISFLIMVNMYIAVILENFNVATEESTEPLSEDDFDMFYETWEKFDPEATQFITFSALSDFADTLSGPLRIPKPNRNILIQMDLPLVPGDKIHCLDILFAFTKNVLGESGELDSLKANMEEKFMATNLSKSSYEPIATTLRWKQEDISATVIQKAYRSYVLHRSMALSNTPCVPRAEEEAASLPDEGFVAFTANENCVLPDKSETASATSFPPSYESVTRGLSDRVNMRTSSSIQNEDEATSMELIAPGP

Cc1c(C(C)(F)F)nn(CC2(C)CC(F)(F)C2)c1C(=O)Nc1ccnc(S(C)(=N)=O)c1 (single isomer, unassigned) [Example 5a, 1-((3,3-difluoro-1-methylcyclobutyl)methyl)-3-(1,1-difluoroethyl)-4-methyl-N-(2-(S-methylsulfonimidoyl)pyridin-4-yl)-1H-pyrazole-5-carboxamide]
IC50: ≤ 100 nM

CS(=N)(=O)c1cc(NC(=O)c2c(C(F)(F)F)c(C3CC3)nn2C[C@H]2CCC(F)(F)C2)ccn1 (single isomer, unassigned) [Example 17b]
IC50: ≤ 100 nM

CC1(Cn2nc(C3CC3)c(C(F)(F)F)c2C(=O)Nc2cnnc(S(C)(=N)=O)c2)CC(F)(F)C1 (single isomer, unassigned) [Example 47a, 3-cyclopropyl-1-((3,3-difluoro-1-methylcyclobutyl)methyl)-N-(6-(S-methylsulfonimidoyl)pyridazin-4-yl)-4-(trifluoromethyl)-1H-pyrazole-5-carboxamide]
IC50: ≤ 100 nM

CC1(Cn2nc(C(C)(C)F)c(C(F)(F)F)c2C(=O)Nc2ccnc(S(C)(=N)=O)c2)CC(F)(F)C1 (single isomer, unassigned) [Example 148a, 1-((3,3-Difluoro-1-methylcyclobutyl)methyl)-3-(2-fluoropropan-2-yl)-N-(2-(S-methylsulfonimidoyl)pyridin-4-yl)-4-(trifluoromethyl)-1H-pyrazole-5-carboxamide]
IC50: ≤ 100 nM

CCS(=N)(=O)c1cc(NC(=O)c2c(C(F)(F)F)c(C3CC3)nn2CC2(C)CC(F)(F)C2)ccn1 (single isomer, unassigned) [Example 48b, 3-cyclopropyl-1-((3,3-difluoro-1-methylcyclobutyl)methyl)-N-(2-(ethylsulfonimidoyl)pyridin-4-yl)-4-(trifluoromethyl)-1H-pyrazole-5-carboxamide]
IC50: ≤ 100 nM

C[S@](=N)(=O)c1cc(NC(=O)c2c(C(F)(F)F)c(C3CC3)nn2C[C@]2(C)C[C@@H](C(F)(F)F)C2)ccn1 (single isomer, unassigned) [Example 86d, 3-cyclopropyl-1-(((cis)-1-methyl-3-(trifluoromethyl)cyclobutyl)methyl)-N-(2-(S-methylsulfonimidoyl)pyridin-4-yl)-4-(trifluoromethyl)-1H-pyrazole-5-carboxamide]
IC50: ≤ 100 nM

CN=S(C)(=O)c1cc(NC(=O)c2c(C)c(C(C)(F)F)nn2CC2(C)CC(F)(F)C2)ccn1 (single isomer, unassigned) [Example 34b, 1-((3,3-Difluoro-1-methylcyclobutyl)methyl)-3-(1,1-difluoroethyl)-N-(2-(N,S-dimethylsulfonimidoyl)pyridin-4-yl)-4-methyl-1H-pyrazole-5-carboxamide]
IC50: ≤ 100 nM

CC1(Cn2nc(C34CC(F)(C3)C4)c(C(F)F)c2C(=O)Nc2cccc(S(C)(=N)=O)c2)CC(F)(F)C1 (single isomer, unassigned) [Example 113b, 1-((3,3-Difluoro-1-methylcyclobutyl)methyl)-4-(difluoromethyl)-3-(3-fluorobicyclo[1.1.1]pentan-1-yl)-N-(3-(S-methylsulfonimidoyl)phenyl)-1H-pyrazole-5-carboxamide]
IC50: ≤ 100 nM

C[S@](=N)(=O)c1cc(NC(=O)c2c(C(F)(F)F)c(C3CC3)nn2C[C@H]2CC23CC3)ccn1 (single isomer, unassigned) [Example 78d, 3-cyclopropyl-N-(2-(S-methylsulfonimidoyl)pyridin-4-yl)-1-(spiro[2.2]pentan-1-ylmethyl)-4-(trifluoromethyl)-1H-pyrazole-5-carboxamide]
IC50: ≤ 100 nM

CC1(Cn2nc(C3(F)CC3)c(C(F)(F)F)c2C(=O)Nc2cccc([S@](C)(=O)=NC(=O)CO)c2)CC(F)(F)C1 [Example 151b]
IC50: ≤ 100 nM

C[S@@](=N)(=O)c1cc(NC(=O)c2c(C(F)(F)F)c(C3CC3)nn2C[C@@H]2CC23CC3)ccn1 (single isomer, unassigned) [Example 78a, 3-cyclopropyl-N-(2-(S-methylsulfonimidoyl)pyridin-4-yl)-1-(spiro[2.2]pentan-1-ylmethyl)-4-(trifluoromethyl)-1H-pyrazole-5-carboxamide]
IC50: ≤ 100 nM

CC1(Cn2nc(C3(C#N)CC3)c(C(F)(F)F)c2C(=O)Nc2ccnc(S(C)(=N)=O)c2)CC(F)(F)C1 (single isomer, unassigned) [Example 68a, 3-(1-cyanocyclopropyl)-1-((3,3-difluoro-1-methylcyclobutyl)methyl)-N-(2-(S-methylsulfonimidoyl)pyridin-4-yl)-4-(trifluoromethyl)-1H-pyrazole-5-carboxamide]
IC50: ≤ 100 nM

CC1(Cn2nc(C34CC(F)(C3)C4)c(C(F)(F)F)c2C(=O)Nc2cccc(S(C)(=N)=O)c2)CC(F)(F)C1 (single isomer, unassigned) [Example 111b, 1-((3,3-difluoro-1-methylcyclobutyl)methyl)-3-(3-fluorobicyclo[1.1.1]pentan-1-yl)-N-(3-(S-methylsulfonimidoyl)phenyl)-4-(trifluoromethyl)-1H-pyrazole-5-carboxamide]
IC50: ≤ 100 nM

Cc1c(C(C)(F)F)nn(C[C@H]2C[C@@H](C(F)(F)F)C2)c1C(=O)Nc1ccnc(S(C)(=N)=O)c1 (single isomer, unassigned) [Example 31b, 3-(1,1-difluoroethyl)-4-methyl-N-(2-(S-methylsulfonimidoyl)pyridin-4-yl)-1-(((cis)-3-(trifluoromethyl)cyclobutyl)methyl)-1H-pyrazole-5-carboxamide]
IC50: ≤ 100 nM

C[C@@]1(Cn2nc(C3CC3)c(C(F)(F)F)c2C(=O)Nc2ccnc([S@@](C)(=N)=O)c2)CC(F)(F)C12CC2 (single isomer, unassigned) [Example 92d, 3-cyclopropyl-1-((6,6-difluoro-4-methylspiro[2.3]hexan-4-yl)methyl)-N-(2-(S-methylsulfonimidoyl)pyridin-4-yl)-4-(trifluoromethyl)-1H-pyrazole-5-carboxamide]
IC50: ≤ 100 nM

CC1(Cn2nc(C3(F)CC3)c(C(F)F)c2C(=O)Nc2ccc(F)c(S(C)(=N)=O)c2)CC(F)(F)C1 (single isomer, unassigned) [Example 133b, 1-((3,3-Difluoro-1-methylcyclobutyl)methyl)-4-(difluoromethyl)-N-(4-fluoro-3-(S-methylsulfonimidoyl)phenyl)-3-(1-fluorocyclopropyl)-1H-pyrazole-5-carboxamide]
IC50: ≤ 100 nM

CC1(Cn2nc(C34CC(F)(C3)C4)c(C(F)F)c2C(=O)Nc2cccc(S(C)(=N)=O)c2)CC(F)(F)C1 (single isomer, unassigned) [Example 113a, 1-((3,3-Difluoro-1-methylcyclobutyl)methyl)-4-(difluoromethyl)-3-(3-fluorobicyclo[1.1.1]pentan-1-yl)-N-(3-(S-methylsulfonimidoyl)phenyl)-1H-pyrazole-5-carboxamide]
IC50: ≤ 100 nM

C[S@@](=N)(=O)c1cc(NC(=O)c2c(C(F)(F)F)c(C3CC3)nn2C[C@H]2CC23CC3)ccn1 (single isomer, unassigned) [Example 78c, 3-cyclopropyl-N-(2-(S-methylsulfonimidoyl)pyridin-4-yl)-1-(spiro[2.2]pentan-1-ylmethyl)-4-(trifluoromethyl)-1H-pyrazole-5-carboxamide]
IC50: ≤ 100 nM
